ChEMBL document CHEMBL2151026, “Comparative study on antioxidant capacity of flavonoids and their inhibitory effects on oleic acid-induced hepatic steatosis in vitro” (Eur J Med Chem, 2011)
Activity calls are given as the source filed them. The rule behind the calls is not given here.

Assays:
[1] = Reducing activity assessed as chlorogenic acid equivalent per mmol standard at 37 degC for 30 mins by Folin-Ciocalteu reagent assay
HepG2 [2] = experiment: Antioxidant activity in human HepG2 cells assessed as reduction of oleic acid-induced ROS generation incubated for 24 hrs by DHCF-DA based fluorimetric assay relative to untreated control; format: functional; details: for IC30: Homo sapiens, HepG2, 24 h
HepG2 [3] = experiment: Inhibition of oleic acid-induced triglyceride over-accumulation in human HepG2 cells incubated for 24 hrs relative to untreated control; format: functional; details: for IC30: Homo sapiens, HepG2, 24 h
[4] = Reducing activity by cyclic voltammetry
HepG2 [5] = experiment: Cytotoxicity against human HepG2 cells incubated for 24 hrs by MTT assay; format: cell-based; details: hepg2, 24 h
HepG2 [6] = experiment: Proxidant activity in human HepG2 cells assessed as increase in oleic acid-induced ROS generation at >10 uM incubated for 24 hrs by […] based fluorimetric assay relative to untreated control; format: cell-based; details: hepg2, 24 h
HepG2 [7] = experiment: Proxidant activity in human HepG2 cells assessed as increase in oleic acid-induced ROS generation at >25 uM incubated for 24 hrs by […] based fluorimetric assay relative to untreated control; format: cell-based; details: hepg2, 24 h

Row | SMILES | Activity [1] | Imax (HepG2 [2]) | IC30 (HepG2 [2]) | Imax (HepG2 [3]) | IC30 (HepG2 [3]) | Activity [4] | Activity (HepG2 [5]) | Activity (HepG2 [6]) | Activity (HepG2 [7]) | inhibition (HepG2 [2])
1 | O=C1c2c(O)cc(O)cc2O[C@H](c2ccc(O)c(O)c2)[C@H]1O [(+)-TAXIFOLIN] | 0.99 mM | 40.1% | 40 µM | 43.4% | 63.6 µM | 0.248 V | > 200 µM |  |  | 
2 | Oc1cc(O)c2c(c1)O[C@H](c1ccc(O)c(O)c1)[C@H](O)C2 [(-)-EPICATECHIN] | 1.05 mM | 38.1% | 103 µM | 46.6% | 166 µM |  | > 250 µM |  |  | 
3 | O=c1cc(-c2ccc(O)cc2)oc2cc(O)cc(O)c12 [APIGENIN] | 0.39 mM | inactive |  | inactive |  | 0.623 V | > 150 µM | Toxic | Toxic | 
4 | O=c1cc(-c2ccccc2)oc2cc(O)cc(O)c12 [CHRYSIN] | 0.16 mM | inactive |  | inactive |  | 0.81 V | > 20 µM |  |  | 
5 | Oc1cc(O)c2c(c1)O[C@H](c1ccc(O)c(O)c1)[C@@H](O)C2 [CIANIDANOL] | 0.77 mM | 29.8% | > 250 µM | 28.7% | > 250 µM | 0.285 V | > 250 µM |  |  | 
6 | O=c1c(-c2ccc(O)cc2)coc2cc(O)ccc12 [DAIDZEIN] | 0.4 mM | 37.5% | 135 µM | 34.5% | 140 µM | 0.596 V | > 200 µM |  |  | Dose-dependent effect
7 | O=C(O[C@@H]1Cc2c(O)cc(O)cc2O[C@@H]1c1cc(O)c(O)c(O)c1)c1cc(O)c(O)c(O)c1 [EPIGALOCATECHIN GALLATE] | 2.2 mM | 40.2% | 26.2 µM | 54.2% | 6.3 µM | 0.125 V | > 200 µM |  |  | Dose-dependent effect
8 | O=c1c(O)c(-c2ccccc2)oc2cc(O)cc(O)c12 [GALANGIN] | 0.75 mM | 12.4% | > 50 µM | inactive |  | 0.354 V | > 50 µM |  |  | 
9 | O=c1c(-c2ccc(O)cc2)coc2cc(O)cc(O)c12 [GENISTEIN] | 0.33 mM | 17.3% | > 50 µM | inactive |  | 0.614 V | > 50 µM |  |  | 
10 | COc1ccc([C@@H]2CC(=O)c3c(O)cc(O)cc3O2)cc1O [HESPERETIN] | 0.53 mM | 23% | > 150 µM | inactive |  | 0.556 V | > 100 µM |  |  | 
11 | COc1cc(-c2oc3cc(O)cc(O)c3c(=O)c2O)ccc1O [ISORHAMNETIN] | 1.04 mM | 43.8% | 69.3 µM | 41.8% | 90.5 µM | 0.115 V | > 200 µM |  |  | Dose-dependent effect
12 | O=c1c(O)c(-c2ccc(O)cc2)oc2cc(O)cc(O)c12 [KAEMPFEROL] | 1.08 mM | 42.2% | 68.7 µM | 58.6% | 121 µM | 0.189 V | > 200 µM |  |  | Dose-dependent effect
13 | O=c1cc(-c2ccc(O)c(O)c2)oc2cc(O)cc(O)c12 [LUTEOLIN] | 0.91 mM | 24% | > 20 µM | 24.2% | > 20 µM | 0.269 V | > 20 µM |  |  | 
14 | O=c1c(O)c(-c2cc(O)c(O)c(O)c2)oc2cc(O)cc(O)c12 [MYRICETIN] | 1.02 mM | 34.5% | 123 µM | 24.8% | > 150 µM | 0.115 V | > 200 µM |  |  | Dose-dependent effect
15 | O=C1C[C@@H](c2ccc(O)cc2)Oc2cc(O)cc(O)c21 [NARINGENIN] | 0.55 mM | inactive |  | inactive |  | 0.71 V | > 200 µM |  |  | 
16 | O=c1c(O)c(-c2ccc(O)c(O)c2)oc2cc(O)cc(O)c12 [QUERCETIN] | 1.24 mM | 43.6% | 30.8 µM | 46.1% | 14.9 µM | 0.218 V | > 75 µM |  |  | Dose-dependent effect
17 | C[C@@H]1O[C@@H](OC[C@H]2O[C@@H](Oc3c(-c4ccc(O)c(O)c4)oc4cc(O)cc(O)c4c3=O)[C@H](O)[C@@H](O)[C@@H]2O)[C@H](O)[C@H](O)[C@H]1O [RUTIN] | 1.35 mM | 25.2% | > 250 µM | 28.2% | > 200 µM | 0.306 V | > 250 µM |  |  | Dose-dependent effect
